Laboratory results reported in US8765684B2, “Solid materials of {[(2S,5R,8S,11S)-5-benzyl-11-(3-guanidino-propyl)-8-isopropyl-7-methyl-3,6,9,12,15-pentaoxo-1,4,7,10,13-pentaaza-cyclopentadec-2-yl]-acetic acid} and methods for obtaining them” (Merck Patent GmbH, priority 2009, dated 2014).
≈ marks a conversion by molar mass, not a printed value.

Legend:
[1] = Solid-state properties (hygroscopicity, stability, dissolution) stated in comparison with amorphous material and salts; format: physicochemical; settings: solid material; for Hygroscopicity: comparison crystalline forms vs amorphous material
[2] = Solubility of tetrahydrate Form S3 in different solvents; format: physicochemical
[3] = Competitive slurry conversion of pseudopolymorphic form and form A1 (1:1) in Water/Methanol and Water/Ethanol mixtures; format: physicochemical; settings: 1:1 pseudopolymorphic form + A1
Description: b) Additionally, crystalline tetrasolvates according invention and especially crystalline forms S1 and S2 can be manufactured by competitive slurry conversion experiments with a mixture of a pseudopolymorphic form (for example S1, S2, S3 or mixtures of these) with form A1 (1:1) in Water/Methanol and Water/Ethanol mixtures with different alcohol contents at different temperatures, respectively.
Approx. 20 mg of a pseudopolymorphic form (for example S1, S2, S3 or mixtures of these) and 20 mg of form A1 of Cilengitide are dispersed in 300 μl Water/alcohol mixture at 0° C. or room temperature (25° C.). The dispersion is stirred for 24 h and additionally for 3 weeks at RT (25° C.) (long-term experiment) by a magnetic stirrer and finally filtered
Approx. 20 mg of a pseudopolymorphic form (for example S1, S2, S3 or mixtures of these) and 20 mg of form A1 of Cilengitide are dispersed in 300 μl Water/alcohol mixture at 50° C. The dispersion is stirred for 24 h by a magnetic stirrer and finally filtered.
Additionally form A1 can be manufactured by competitive slurry conversion experiments with a mixture of a pseudopolymorphic form (for example S1, S2, S3 or mixtures of these) and form A1 (1:1) in Water/Methanol and Water/Ethanol mixtures with different alcohol contents at different temperatures. In the following table the conditions for the experiments leading to the pure form A1 are listed.
Approx. 20 mg of a pseudopolymorphic form (for example S1, S2, S3 or mixtures of these) and 20 mg of form A1 of Cilengitide are dispersed in 300 μl Water/alcohol mixture at 0° C., room temperature and 50° C. The dispersion is stirred for 24 h and additionally for 3 weeks at RT (25° C.) (long-term experiment) by a magnetic stirrer and finally filtered.

[4] = format: physicochemical; settings: 25° C., listed as S1
Excerpt: Preferably, the anhydrates or ansolvates according to the invention and especially the crystalline form A1 can be characterised, alternatively or additionally, by dynamic vapour sorption experiments. The results can be obtained by standard techniques as described in Rolf Hilfiker, ‘Polymorphism in the Pharmaceutical Industry’, Wiley-VCH. Weinheim 2006 (Chapter 9: Water Vapour Sorption, and references therein). […] Eur. criteria.
Preferably, the tetrasolvates according to the invention, more preferably the tetrahydrates according to the invention and especially the crystalline form S3 can be characterised, alternatively or additionally, by dynamic vapour sorption experiments. The results can be obtained by standard techniques as described in Rolf Hilfiker, ‘Polymorphism in the Pharmaceutical Industry’, Wiley-VCH. Weinheim 2006 (Chapter 9: Water Vapour Sorption, and references therein).
Dynamic Vapor Sorption measurements are preferably obtained on a SMS DVS Intrinsic system. The results are preferably obtained by standard techniques as described by Rolf Hilfiker “Polymorphism in the Pharmaceutical Industry” Wiley-VCH Weinheim 2006 (Chapter 9: Water Vapour Sorption, and references therein.) Approx. 2-10 mg of samples are preferably weighed into an Aluminium 100 μL pan and placed in the sample incubator of the DVS instrument with microbalance. A nitrogen overall flow rate of 200 mL/min (combined dry and humid stream) is preferably used for humidification. Water vapor sorption isotherms are preferably acquired at 25° C. in the range 0% relative humidity to 98% relative humidity mostly with 10% relative humidity steps. For all relative humidity steps, an equilibrium condition of dm/dt≦0.0005 wt %/min are preferably used, with a minimum relative humidity step time of 10 minutes and a maximum relative humidity step time of 360 minutes which is preferably used as a timeout if the dm/dt criterai mentioned above is not been reached.
A SMS DVS I system is used for the dynamic vapour experiments regarding crystalline form S3. The results have been obtained by standard techniques as described in Rolf Hilfiker, ‘Polymorphism in the Pharmaceutical Industry’, Wiley-VCH. Weinheim 2006 (Chapter 9: Water Vapour Sorption, and references therein). […] During the water adsorption cycle there is shown an assembly of water molecules (ca. 10 wt%) in the lattice at elevated rh. In the second desorption cycle there is a loss of this amount of water.
(§1) A SMS DVS Intrinsic is used for the dynamic vapour experiments. The results are obtained by standard techniques as described in Rolf Hilfiker, ‘Polymorphism in the Pharmaceutical Industry’, Wiley-VCH. Weinheim 2006 (Chapter 9: Water Vapour Sorption, and references therein). […] Upon water vapour adsorption, an assembly of water molecules in the lattice is observed, with a maximum weight gain of approx. 8 wt % at elevated rh. In the second desorption cycle a total mass loss of approx. 9.9 wt % is observed. For a Cilengitide Dihydrate Di-Methanolate, the calculated Methanol content equals 9.3 wt %.
as §1, with “6.4” for “8”, “9.2” for “9.9”, “Di-Ethanolate,” for “Di-Methanolate,”, “Ethanol” for “Methanol”, “12.5” for “9.3”

[5] = Methanol vapour sorption (DVS, hydrate form to form S1); format: physicochemical
Description: In the respective dynamic vapor sorption experiments discussed in more detail herein using methanol vapor at 98% relative saturation for the Dihydrate-dimethanolate/crystalline form S1 at 25° C. starting with the tetrahydrate a mass gain of 9% has been obtained. This is in good agreement with the above shown results for the tetramethanolate (calculated 108.5%, i.e. 8.5% of mass gain).
Preferably, the tetrasolvates according to the invention, more preferably the Dihydrate-dimethanolate, the Dihydrate-methanolate, the Dihydrate-monoethanolate, the Dimethanolate and/or the desolvates thereof, and especially the crystalline form S1 can be characterised, alternatively or additionally, by dynamic vapour experiments using water vapour and/or methanol vapour. The results can be obtained by standard techniques as described in Rolf Hilfiker, ‘Polymorphism in the Pharmaceutical Industry’, Wiley-VCH. Weinheim 2006 (Chapter 9: Water Vapour Sorption, and references therein).
Upon water vapour adsorption, an assembly of water molecules in the lattice is observed, with a maximum weight gain of approx. 8 wt % at elevated rh. In the second desorption cycle a total mass loss of approx. 9.9 wt % is observed. For a Dihydrate Di-Methanolate of the compound of formula I, the calculated Methanol content equals 9.3 wt %. […] Methanol Vapour Sorption Isotherm (25° C.) of a hydrate form to form S1 (SMS DVS Advantage) FIG. 14.
Thus, crystalline form S1 is a crystalline Methanol solvate form or a mixed water/methanol solvate form, preferably selected from the Dihydrate-methanolate, the Dihydrate-monoethanolate, the Dimethanolate and/or the desolvates thereof, which can be obtained e.g. via Methanol Vapour Sorption, preferably via Methanol Vapour Sorption starting with a hydrate structure, such as the hydrates according to the invention and especially the tetrahydrate according to the invention, i.e crystalline form S3. […]

[6] = Conditioning of amorphous Cilengitide under methanol atmosphere; format: physicochemical; settings: MeOH liquid phase 100 v %
Excerpt: As still another example, conditioning of amorphous material of the compound according to formula I or hydrate forms under methanol atmosphere yielded crystalline solvates with 2 molecules methanol per molecule of the compound according to formula I.
Conditioning of amorphous Cilengitide (abbreviated: Cil; Cilengitide=Cyclo-(Arg-Gly-Asp-DPhe-NMeVal) under methanol atmosphere yielded a solvate with 2 molecules methanol per molecule Cilengitide.

## CC(C)[C@H]1C(=O)N[C@@H](CCCNC(=N)N)C(=O)NCC(=O)N[C@@H](CC(=O)O)C(=O)N[C@H](Cc2ccccc2)C(=O)N1C [amorphous material, cyclo-(Arg-Gly-Asp-DPhe-NMe-Val)]
[1]; listed as amorphous forms
  Hygroscopicity: unfavourably hygroscopic
[1]; listed as amorphous solid material
  Hygroscopicity: very high hygroscopicity
[1]; comparison crystalline forms vs amorphous phase
  Physical and/or chemical (solid state) stability: low stability

## CC(C)[C@H]1C(=O)N[C@@H](CCCN=C(N)N)C(=O)NCC(=O)N[C@@H](CC(=O)O)C(=O)N[C@H](Cc2ccccc2)C(=O)N1C [crystalline form S3, cyclo-(Arg-Gly-Asp-DPhe-NMe-Val)]
[2]; solvent H2O
  solubility: 21.6 mg/mL (≈ 36.7 mM)
[2]; solvent H2O/Acetone (1:1)
  solubility: 22.7 mg/mL (≈ 38.6 mM)
[2]; solvent H2O/Acetonitrile (1:1)
  solubility: 24.3 mg/mL (≈ 41.3 mM)
[2]; solvent H2O/EtOH (1:1)
  solubility: 13 mg/mL (≈ 22.1 mM)
[2]; solvent H2O/MeOH (1:1)
  solubility: 12.8 mg/mL (≈ 21.7 mM)
[2]; solvent H2O/iPrOH (1:1)
  solubility: 22.9 mg/mL (≈ 38.9 mM)
[2]; solvent buffer pH 7.4
  solubility: 24.4 mg/mL (≈ 41.4 mM)
[2]; solvent physiological NaCl solution
  solubility: 21.1 mg/mL (≈ 35.8 mM)

## cyclo-(Arg-Gly-Asp-DPhe-NMe-Val) [crystalline form S1]
[3]; 0° C. for 1 day
  Methanol in the mixture with Water leading to form S1: 40-100 v %
[3]; RT for 3 weeks
  Methanol in the mixture with Water leading to form S1: 60-100 v %
[3]; RT for 1 day
  Methanol in the mixture with Water leading to form S1: 60-100 v %
[4]; elevated rh
  Maximum weight gain upon water vapour adsorption: approx. 8 wt %
[4]; water vapour sorption
  Mass loss in the first desorption cycle: approx. 8 wt %
  Total mass loss in the second desorption cycle: approx. 9.9 wt %
[5]; atmosphere of 100% Methanol vapour
  Thermodynamic stability of the form: thermodynamically stable form
[5]; elevated Methanol partial pressure, starting with a hydrate structure
  Methanol taken up by the sample: approx. 9 wt %
[5]; methanol vapor at 98% relative saturation, 25° C., starting with the tetrahydrate
  Mass gain: 9%
[6]
  H2O KF: 0.3 wt %
  MeOH HS-GC: 10.0 wt %
  Σ TG: 10.4 wt %
[6]; per 1 mol Cil
  H2O KF: 0.1 mol
  MeOH HS-GC: 2.1 mol
